Results published in patent US20050070719A1, “Inhibitors of dipeptidyl peptidase iv” (priority 2001, published 2005).
Counter-ions that a name gives are not always drawn.

Key:
DPP IV = molecular target: T1, DPP IV (Rattus norvegicus, UniProt P14740); assay: Measuring DPP IV inhibition (rat plasma, fluorogenic peptide substrate); format: biochemical; conditions: substrate H-Gly-Pro-alpha methyl coumarin, 30 min, room temp
T1 construct: Add 25 uL of rat plasma or buffer to wells; from tissue; host or cells: rat plasma
Method: Dilute 1 volume of rat plasma ([…] with sodium citrate) to 2.5 volumes assay buffer (25 mM HEPES, 140 mM NaCl, 1% BSA [added on the day of the assay]; pH 7.8) to yield approximately 350 micrograms total protein/well in a 96-well plate. […] Dilute the peptide substrate (H-Gly-Pro-alpha methyl coumarin, 10 mM stock in 100% DMSO) 1:100 in assay buffer. Compounds of this invention are diluted in 100% DMSO. Add 10 microliter of diluted compounds or DMSO vehicle to wells. Add 25 uL of rat plasma or buffer to wells. Add 25 uL MgCl2 to all wells. Vortex gently for 1 minute, then pre-incubate at room temp for 10 minutes. Start the reaction by adding 50 uL peptide substrate (no vortexing), and incubate the plate at room temp in the dark for 30 minutes. […] Read the plate at 380 nm (excitation) and 460 nm (emission).

[1] = system: MPTP-lesioned mouse model of Parkinson's disease; assay: In vivo reinnervation of the denervated striatum by nigrostriatal dopaminergic fibers (MPTP-lesioned mouse model of Parkinson's disease); conditions: CD1 mice, MPTP 34 mg/kg i.p. days 1-5; compound 10 mg/kg s.c. once daily days 1-5; analysis day 7
Text: MPTP (N-methyl-4-phenyl-1,2,3,6-tetrahydropyridine) is a systemically available neurotoxin specific to nigrostriatal dopaminergic neurons, i.e. to the cells that degenerate in human Parkinson's disease. Administration of MPTP to mice leads to a selective partial destruction of the mesotelencephalic dopaminergic projection, and to a loss of dopamine and dopaminergic fibres in the corpus striatum, which is the main forebrain target of midbrain dopaninergic neurons.
Young adult male CD1 albino mice (Harlan-Sprague Dawley; 22-25 g) were dosed i.p. with the dopamine cell-specific neurotoxin N-methyl-4-phenyl-1,2,3,6-tetrahydropyridine (MPTP hydrochloride, calculated as 34 mg/kg free base), dissolved in saline at a concentration of 3.4 mg/ml free base once daily on days one to five. […]
Blinded analysis of TH fiber density in the central striatum was performed at 630× magnification. […] The percentage of sample field covered by TH positive processes and terminals was calculated using an image analysis program (“Simple,” Compix Inc., Pittsburgh, Pa.). The mean striatal innervation density was calculated for each group. The magnitude of striatal deafferentation due to the MPTP lesion was assessed by dividing the observed striatal innervation values obtained in MPTP/vehicle treated cases by the mean striatal innervation density in the Vehicle/Vehicle group and expressed as % loss. […]

T1 sequence (P14740 37-767 limits assumed): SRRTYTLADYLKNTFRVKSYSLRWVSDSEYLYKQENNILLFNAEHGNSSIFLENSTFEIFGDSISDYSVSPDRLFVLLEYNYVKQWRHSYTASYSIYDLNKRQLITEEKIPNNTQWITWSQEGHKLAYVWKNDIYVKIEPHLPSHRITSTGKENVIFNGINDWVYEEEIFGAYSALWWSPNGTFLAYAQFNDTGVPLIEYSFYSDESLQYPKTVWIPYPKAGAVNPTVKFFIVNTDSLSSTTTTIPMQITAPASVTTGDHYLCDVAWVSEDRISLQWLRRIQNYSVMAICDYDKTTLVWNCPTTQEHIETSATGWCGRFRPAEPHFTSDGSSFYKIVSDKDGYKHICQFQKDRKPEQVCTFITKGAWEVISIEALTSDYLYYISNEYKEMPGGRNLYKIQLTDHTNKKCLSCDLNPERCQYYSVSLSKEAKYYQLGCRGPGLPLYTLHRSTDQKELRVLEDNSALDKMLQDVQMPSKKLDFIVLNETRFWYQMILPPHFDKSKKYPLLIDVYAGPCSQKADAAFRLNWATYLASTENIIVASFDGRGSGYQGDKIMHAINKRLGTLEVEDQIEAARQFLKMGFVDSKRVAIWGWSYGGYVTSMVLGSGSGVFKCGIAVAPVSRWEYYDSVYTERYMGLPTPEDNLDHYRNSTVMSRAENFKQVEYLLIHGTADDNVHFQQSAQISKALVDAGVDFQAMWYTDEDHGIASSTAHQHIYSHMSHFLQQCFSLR

SMILES	IC50 (DPP IV)	% protection of striatal tyrosine hydroxylase-immunoreactive fibres [1]
Cl.N#CC1CCCN1C(=O)C1CC2CCCCC2N1 (centres unmarked) [Example 1, 1-(octahydroindole-2-carbonyl)pyrrolidine-2-carbonitrile hydrochloride]	13.9 nM	32.5%
N#CC1CCN1C(=O)C1CCCN1 (centres unmarked) [Example 17, 1-(pyrrolidine-2-carbonyl)azetidine-2-carbonitrile]	1100 nM	
N#CC1CCN1C(=O)CNC12CC3CC(CC(C3)C1)C2 (centres unmarked) [Example 18, 1-[2-(adamant-1-ylamino)acetyl]-azetidine-2-carbonitrile]	223 nM	
Cl.N#CC1CCN1C(=O)C1CC2CCCCC2N1 (centres unmarked) [Example 20, 1-(octahydroindole-2-carbonyl)azetidine-2-carbonitrile hydrochloride]	178 nM	32.6%
N#CC1CCN1C(=O)C(N)C1CCCCC1 (centres unmarked) [Example 16, 1-(2-amino-2-cyclohexyl-acetyl)azetidine-2-carbonitrile]	1200 nM	
N#C[C@@H]1CCCN1C(=O)[C@H]1NCC2CCCCC21 (some centres unmarked) [Example 4, 2-(L)-Cyano-(octahydro-isoindolyl)pyrrolidine hydrogen chloride]	551 nM	
N#CC1CSCN1C(=O)C1CC2CCCCC2N1 (centres unmarked) [Example 5, 3-(octahydroindole-2-carbonyl)thiazolidine4-carbonitrile hydrochloride]	3.8 nM	

Further compounds by falling IC50 (DPP IV), results first:

IC50 (DPP IV)	SMILES	% protection of striatal tyrosine hydroxylase-immunoreactive fibres [1]
22200 nM	N[C@H](C(=O)N1CCCCC1)C1CCCCC1 [Example 8, 1-(L-α-cyclohexylglycyl)piperidine hydrogen chloride]	
10000 nM	O=C(C1CC2CCCCC2N1)N1CCCC1 (centres unmarked) [Example 10, 1-(octahydroindole-2-carbonyl)pyrrolidine hydrochloride]	
4820 nM	O=C(CNC12CC3CC(CC(C3)C1)C2)N1CCSC1 [Example 12, 1-[2-(adamant-1-ylamino)acetyl]-3-thiopyrrolidine]	
1880 nM	N[C@H](C(=O)N1CC=CC1)C1CCCCC1 [Example 6, 1-(L-α-cyclohexylglycyl)-3-pyrroline hydrogen chloride]	
60.7 nM	N#CC1CCCN1C(=O)C1NCC2CC21 (centres unmarked) [Example 2, 1-(3-azabicyclo[3.1.0]hexane-2-carbonyl)pyrrolidine-2-carbonitrile hydrochloride]	
6.5 nM	N#C[C@@H]1CC(F)CN1C(=O)C(N)C1CCCCC1 (some centres unmarked) [Example 14, 2-Cyano-4-fluoro-1-cyclohexylglycylpyrrolidine hydrogen chloride]	
6.2 nM	CCC(C)[C@H](N)C(=O)N1CC(F)C[C@H]1C#N (some centres unmarked) [Example 13, 2-cyano-4-fluoro-1-(sec-butyl)glycylpyrrolidine hydrogen chloride]	
1.65 nM	N#CC1CC(F)CN1C(=O)C1CC2CCCCC2N1 (centres unmarked) [Example 3, 2-cyano-4-fluoro-1-(octahydroindole-2-carbonyl)-pyrrolidine hydrogen chloride]	
